Experiments:
[1] = Apparent pKa of the amino lipid; assay type: physicochemical
PDAC = settings: metastasized stage; Conroy et al. 2011; cited from earlier work
[2] = tested on: locally advanced, unresectable or metastatic pancreatic cancer; settings: erlotinib versus placebo; cited from earlier work
[3] = tested on: pancreatic cancer cell lines; settings: cited from earlier work; for de novo CLDN-18.2 expression: CLDN-18.2-negative cell lines; for CLDN-18.2 expression levels: pancreatic cancer cell lines with existing expression
advanced BTC = settings: first-line treatment of advanced disease; cited from earlier work
CLDN-18.2+ cells = settings: in serum; Sahin et al. 2018; cited from earlier work
[4] = cited from earlier work
[5] = target: first extracellular domain (ECD1) of CLDN-18.2 (Homo sapiens, UniProt P56856); settings: cited from earlier work
[6] = tested on: gastric and gastro-esophageal cancer; settings: cited from earlier work
MDA-MB-231 cells = assay: Ex vivo ADCC assay with serum of dosed non-human primates, target-negative control cells; assay type: cell-based; settings: FIG. 5 Panel C dilution row
Experimental: (§1) Non-Human Primates (NHP) received three repetitive doses of 0.1, 0.4 or 1.6 mg/kg RB_RMAB01 once weekly. RiboMab01-containing serum of all monkeys sampled 24 hours (black bars) and 168 hours (white bars) post 1st injection was directed to luciferase-based ex vivo ADCC assays. […] Human PBMCs from two different healthy donors (24 h, donor 1, 168 h, donor 2) served as effector cells. (Panel A) RiboMab01-mediated ADCC of NUG-C4 cells after 48 hours incubation is shown. (Panel B) Unspecific lysis on target-negative MDA-MB-231 cells is shown. Error bars are standard error of the mean (n=3). (Panel C) Serum of NHP No. 14 (1.6 mg/kg RB_RMAB01, RiboMab01 serum concentration 232 μg/mL) collected 48 hours after the 3rd dosing was used for a luciferase-based ex vivo ADCC assays. […] Human PBMCs of a healthy donor served as effector cells. […] Incubation time was 48 hours. Error bars are standard errors of the mean (n=3).
(§2) ADCC assays were performed as described in Example 2. […] Purified IMAB362 served as assay reference protein.

[7] = target: CLDN-18.2+ NUG-C4 transfectants; assay: In vitro ADCC assay (luciferase-based); assay type: cell-based, human; settings: human PBMCs from three donors, E:T 30:1, 48 hours
Experimental: RiboMab01-containing cell culture supernatant from CHO-K1 cells lipofected with RB_RMAB01 was subjected to (Panel A) ADCC and (Panel B) CDC assays. […] Human PBMCs of three different healthy donors were utilized as effector cells (E:T ratio 30:1). Target or control and effector cells were incubated for 48 hours with the indicated RiboMab01 and IMAB362 reference protein concentrations. Specific cell lysis as determined in a luciferase-based assay is shown. […] Target and control cells were incubated with human serum and RiboMab01 concentrations as indicated for 2 hours. CDC determined in a luciferase-based assay is shown. Error bars are standard errors of the mean (n=3).
Mode of action analysis: Antibody-dependent cellular cytotoxicity (ADCC) and complement-dependent cytotoxicity (CDC) in vitro. […] To simulate in vivo conditions, human PBMCs from three different healthy donors were used as effector cells in ADCC assays in an effector to target (E:T) ratio of 30:1 and human serum (e.g., commercially available human serum) was used as a source of complement in CDC assays.

[8] = tested on: CLDN-18.2+ NUG-C4 transfectants; assay: Ex vivo ADCC assay with serum of dosed non-human primates; assay type: cell-based; settings: serum of monkey No. 14 (1.6 mg/kg) 48 hours after 3rd dosing or recombinant reference protein; 48 hours incubation
Experimental: as §1, §2

[9] = cited from earlier work; remark: listed apart in the source
[10] = ≥70% CLDN-18.2 expression subset, vs EOX, p<0.0005

Compound `CCCCCCC(CCCC)C(=O)OCCCCCCCCCN(CCCO)CCCCCCCCCOC(=O)C(CCCC)CCCCCC` (stereo not shown) [Cationic Lipid A, ((3-Hydroxypropyl)azanediyl)bis(nonane-9,1-diyl)bis(2-butyloctanoate)] has a pKa [1] of about 6.25.

In the case of FOLFIRINOX, the “median survival compared to gemcitabine alone” value (PDAC) is listed as “nearly double median survival”.

In the case of `C#Cc1cccc(Nc2ncnc3cc(OCCOC)c(OCCOC)cc23)c1` [erlotinib], the “median overall survival (OS) benefit” value [2] is listed as 0.4 month and the “median progression-free survival (PFS) benefit” value [2] is listed as 0.3 month.

For `O=C1[O][Pt]2([NH][C@@H]3CCCC[C@H]3[NH]2)[O]C1=O` [oxaliplatin], the “de novo CLDN-18.2 expression” value [3] is listed as “not observed to increase de novo expression” and the CLDN-18.2 expression levels [3] is listed as “upregulate existing CLDN-18.2 expression levels”.

For `Nc1ccn([C@@H]2O[C@H](CO)[C@@H](O)C2(F)F)c(=O)n1` [gemcitabine], the “de novo CLDN-18.2 expression” value [3] is given as “not observed to increase de novo expression”, the CLDN-18.2 expression levels [3] is given as “upregulate existing CLDN-18.2 expression levels” and the “median OS” value (advanced BTC) is given as 8.1 months.

For `O=c1[nH]cc(F)c(=O)[nH]1` [5-fluorouracil], the “de novo CLDN-18.2 expression” value [3] is given as “not observed to increase de novo expression” and the CLDN-18.2 expression levels [3] is given as “upregulate existing CLDN-18.2 expression levels”.

In the case of “IMAB362: full IgG1 monoclonal antibody targeting CLDN-18.2; used as recombinant reference protein”, the “ADCC EC95 (concentration that gives 95% response)” value (CLDN-18.2+ cells) is listed as 0.3 to 28 µg/mL, the cmax ([4]; repeated doses up to 1000 mg/m^2 q3w) is listed as “up to 603 μg/mL” and the “tolerability across various trials” value ([4]; single agent and in combination with chemotherapy) is listed as “well tolerated”. For the same compound, the “binding to other claudin family members including CLDN18.1” value [5] was “does not bind”, the “recognition of ECD1 of CLDN-18.2” value [5] was “high affinity and specificity” and the “change of median overall survival” value ([6]; patients with ≥70% of tumor cells with ≥2+ CLDN-18.2 staining) was “near-doubling”. For the same compound, the “benefit in overall survival (OS)” value [6, 10] was 33.1 weeks, the “delay in central independent reviewed progression” value [6, 10] was 14.5 weeks and the “unspecific lysis on control cells” value (MDA-MB-231 cells) was “weak unspecific lysis”. For the same compound, the “ADCC EC50” value [7] was 0.014 to 0.265 µg/mL, the EC50 [8] was 0.151 nM and the “patients with grade 3 vomiting” value ([9]; 12 patients, 600 mg/m^2 dose) was 22%. For the same compound, the patients with fatigue ([9]; TEAE) was 22%, the patients with nausea ([9]; TEAE) was 61% and the patients with vomiting ([9]; TEAE) was 50%. The “patients with grade 3 nausea” value ([9]; eight patients, 600 mg/m^2 dose) was 15% and the “patients with treatment emergent adverse events (TEAEs)” value ([9]; n=44/54) was 82%.
